Test results taken from BindingDB's records for doi:10.1021/jm980131z (Boehringer Ingelheim (Canada), 1998).

The compounds below were run against Human cytomegalovirus protease (Human herpesvirus 5) (assay: Inhibitory activity against human cytomegalovirus (HCMV) protease).

Question: How did the IC50 turn out when `CC(=O)Nc1ccc(CN(C)C(=O)N2C(=O)C[C@@H]2Cc2ccccc2)cc1` [(S)-2-Benzyl-4-oxo-azetidine-1-carboxylic acid (4-acetylamino-benzyl)-methyl-amide] was run?
Answer: 17 µM

Question: Which IC50 does the source give for `C[C@@H](NC(=O)N1C(=O)C[C@H]1Cc1ccccc1)c1ccccc1` [(R)-2-Benzyl-4-oxo-azetidine-1-carboxylic acid ((R)-1-phenyl-ethyl)-amide] here?
Answer: > 75 µM

Question: How did the IC50 turn out when `CC1(C)C(=O)N(C(=O)NCc2ccncc2)[C@@H]1Cc1ccccc1` was run?
Answer: > 300 µM

Question: With `O=C1C[C@H](Cc2ccccc2)N1C(=O)NCc1ccncc1` [(S)-2-Benzyl-4-oxo-azetidine-1-carboxylic acid (pyridin-4-ylmethyl)-amide] as the compound, how does the IC50 read?
Answer: 12 µM

Question: Which IC50 does the source give for `O=C1C[C@H](Cc2ccccc2)N1C(=O)Nc1ccc(F)cc1` [(S)-2-Benzyl-4-oxo-azetidine-1-carboxylic acid (4-fluoro-phenyl)-amide] here?
Answer: 3.7 µM

Question: For `Cc1ccc(NC(=O)N2C(=O)C[C@@H]2Cc2ccccc2)cc1` [(S)-2-Benzyl-4-oxo-azetidine-1-carboxylic acid p-tolylamide], which IC50 is on record?
Answer: 5.2 µM

Question: For `CN(Cc1ccc(Cl)cc1)C(=O)N1C(=O)C[C@@H]1Cc1ccccc1` [(S)-2-Benzyl-4-oxo-azetidine-1-carboxylic acid (4-chloro-benzyl)-methyl-amide], which IC50 is on record?
Answer: 6.9 µM

Question: Which IC50 does the source give for `O=C1C[C@H](Cc2ccccc2)N1C(=O)NCc1ccccn1` [(S)-2-Benzyl-4-oxo-azetidine-1-carboxylic acid (pyridin-2-ylmethyl)-amide] here?
Answer: 33 µM

Question: With `C[C@@H](NC(=O)N1C(=O)C[C@@H]1Cc1ccccc1)c1ccccc1` [(S)-2-Benzyl-4-oxo-azetidine-1-carboxylic acid ((R)-1-phenyl-ethyl)-amide] as the compound, how does the IC50 read?
Answer: 4 µM

Question: `O=C1C[C@H](Cc2ccccc2)N1C(=O)N(Cc1ccccc1)OCc1ccccc1` [(S)-2-Benzyl-4-oxo-azetidine-1-carboxylic acid benzyl-benzyloxy-amide] was tested. Which IC50 did it give?
Answer: 13 µM

Question: With `O=C1C[C@H](Cc2ccccc2)N1C(=O)NCc1ccccc1` [(S)-2-Benzyl-4-oxo-azetidine-1-carboxylic acid benzylamide] as the compound, how does the IC50 read?
Answer: 10 µM

Question: Which IC50 does the source give for `CON(Cc1ccccc1)C(=O)N1C(=O)C[C@@H]1Cc1ccccc1` [(S)-2-Benzyl-4-oxo-azetidine-1-carboxylic acid benzyl-methoxy-amide] here?
Answer: 6.2 µM

Question: For `CN(Cc1ccc(C#N)cc1)C(=O)N1C(=O)C[C@@H]1Cc1ccccc1` [(S)-2-Benzyl-4-oxo-azetidine-1-carboxylic acid (4-cyano-benzyl)-methyl-amide], which IC50 is on record?
Answer: 6 µM

Question: `CN(Cc1cccc([N+](=O)[O-])c1)C(=O)N1C(=O)C[C@@H]1Cc1ccccc1` [(S)-2-Benzyl-4-oxo-azetidine-1-carboxylic acid methyl-(3-nitro-benzyl)-amide] was tested. Which IC50 did it give?
Answer: 6.9 µM

Question: For `CN(Cc1ccc(S(=O)(=O)C(F)(F)F)cc1)C(=O)N1C(=O)C[C@@H]1Cc1ccccc1` [(S)-2-Benzyl-4-oxo-azetidine-1-carboxylic acid methyl-(4-trifluoromethanesulfonyl-benzyl)-amide], which IC50 is on record?
Answer: 4.3 µM

Question: Which IC50 does the source give for `CN(Cc1ccc([N+](=O)[O-])cc1)C(=O)N1C(=O)C[C@@H]1Cc1ccccc1` [(S)-2-Benzyl-4-oxo-azetidine-1-carboxylic acid methyl-(4-nitro-benzyl)-amide] here?
Answer: 1.5 µM

Question: `CCC[C@@H](NC(=O)N1C(=O)C[C@@H]1Cc1ccccc1)c1ccccc1` [(S)-2-Benzyl-4-oxo-azetidine-1-carboxylic acid ((R)-1-phenyl-butyl)-amide] was tested. Which IC50 did it give?
Answer: 3.4 µM

Question: How did the IC50 turn out when `O=C1C[C@H](Cc2ccccc2)N1C(=O)NC1CCCCC1` [(S)-2-Benzyl-4-oxo-azetidine-1-carboxylic acid cyclohexylamide] was run?
Answer: 8.4 µM

Question: For `O=C1C[C@H](Cc2ccccc2)N1C(=O)N(Cc1ccccc1)C1CC1` [(S)-2-Benzyl-4-oxo-azetidine-1-carboxylic acid benzyl-cyclopropyl-amide], which IC50 is on record?
Answer: > 75 µM

Question: For `CN(Cc1ccc(SC(F)(F)F)cc1)C(=O)N1C(=O)C[C@@H]1Cc1ccccc1` [(S)-2-Benzyl-4-oxo-azetidine-1-carboxylic acid methyl-(4-trifluoromethylsulfanyl-benzyl)-amide], which IC50 is on record?
Answer: 6.9 µM

Question: `CN(Cc1ccc(N)cc1)C(=O)N1C(=O)C[C@@H]1Cc1ccccc1` [(S)-2-Benzyl-4-oxo-azetidine-1-carboxylic acid (4-amino-benzyl)-methyl-amide] was tested. Which IC50 did it give?
Answer: 20 µM

Question: `O=C1C[C@H](Cc2ccccc2)N1C(=O)NCc1cccnc1` [(S)-2-Benzyl-4-oxo-azetidine-1-carboxylic acid (pyridin-3-ylmethyl)-amide] was tested. Which IC50 did it give?
Answer: 10 µM

Question: How did the IC50 turn out when `C[C@H](NC(=O)N1C(=O)C[C@@H]1Cc1ccccc1)c1ccccc1` [(S)-2-Benzyl-4-oxo-azetidine-1-carboxylic acid ((S)-1-phenyl-ethyl)-amide] was run?
Answer: 42 µM

Question: `CC1(C)C(=O)N(C(=O)NCc2ccncc2)[C@H]1Cc1ccccc1` [(S)-2-Benzyl-3,3-dimethyl-4-oxo-azetidine-1-carboxylic acid (pyridin-4-ylmethyl)-amide] was tested. Which IC50 did it give?
Answer: > 75 µM

Question: For `CC[C@@H](NC(=O)N1C(=O)C[C@@H]1Cc1ccccc1)c1ccccc1` [(S)-2-Benzyl-4-oxo-azetidine-1-carboxylic acid ((R)-1-phenyl-propyl)-amide], which IC50 is on record?
Answer: 2.6 µM

Question: How did the IC50 turn out when `Cc1ccc(CN(C)C(=O)N2C(=O)C[C@@H]2Cc2ccccc2)cc1` [(S)-2-Benzyl-4-oxo-azetidine-1-carboxylic acid methyl-(4-methyl-benzyl)-amide] was run?
Answer: 8.9 µM

Question: Which IC50 does the source give for `CN(Cc1ccccc1[N+](=O)[O-])C(=O)N1C(=O)C[C@@H]1Cc1ccccc1` [(S)-2-Benzyl-4-oxo-azetidine-1-carboxylic acid methyl-(2-nitro-benzyl)-amide] here?
Answer: 11 µM

Question: `CS[C@@H]1C(=O)N(C(=O)NCc2ccncc2)[C@H]1Cc1ccccc1` [(2S,3S)-2-Benzyl-3-methylsulfanyl-4-oxo-azetidine-1-carboxylic acid (pyridin-4-ylmethyl)-amide] was tested. Which IC50 did it give?
Answer: 6.9 µM

Question: With `COc1ccc(NC(=O)N2C(=O)C[C@@H]2Cc2ccccc2)cc1` [(S)-2-Benzyl-4-oxo-azetidine-1-carboxylic acid (4-methoxy-phenyl)-amide] as the compound, how does the IC50 read?
Answer: 3.9 µM

Question: With `CC(C)c1ccc(CN(C)C(=O)N2C(=O)C[C@@H]2Cc2ccccc2)cc1` [(S)-2-Benzyl-4-oxo-azetidine-1-carboxylic acid (4-isopropyl-benzyl)-methyl-amide] as the compound, how does the IC50 read?
Answer: 6.4 µM
